# Assay results: patent US9181273B2, “Morpholine-spirocyclic piperidine amides as modulators of ion channels” (Vertex Pharmaceuticals Incorporated, priority 2011, dated 2015)
# Target: human NaV subtype, like NaV 1.7 (Homo sapiens, UniProt Q15858)
# Assay: E-VIPR optical membrane potential assay with electrical stimulation
# Assay type: cell-based
# Settings: active against one or more sodium channels; assay and NaV subtype not specified for Table 3; read-out: IC50 Binned Activity Data
# From the text: Sodium channels are voltage-dependent proteins that can be activated by inducing membrane voltage changes by applying electric fields. […] The instrument comprises a microtiter plate handler, an optical system for exciting the coumarin dye while simultaneously recording the coumarin and oxonol emissions, a waveform generator, a current- or voltage-controlled amplifier, and a device for inserting electrodes in well. Under integrated computer control, this instrument passes user-programmed electrical stimulus protocols to cells within the wells of the microtiter plate.
# 24 hours before the assay on E-VIPR, HEK cells expressing human NaV subtype, like NaV 1.7, are seeded in 384-well poly-lysine coated plates at 15,000-20,000 cells per well. Other subtypes are performed in an analogous mode in a cell line expressing the NaV of interest. […] Cells are grown in vented cap flasks, in 90% humidity and 10% CO2, to 100% confluence. They are usually split by trypsinization 1:10 or 1:20, depending on scheduling needs, and grown for 2-3 days before the next split.
# To make the solution Add volume of 10% Pluronic F127 stock equal to volumes of CC2-DMPE+DiSBAC6(3). The order of preparation is first mix Pluronic and CC2-DMPE, then add DiSBAC6(3) while vortexing, then add Bath1+β-Cyclodextrin.
# 1) Pre-spot compounds (in neat DMSO) into compound plates. […] Final compound plate volume will be 80 μL (80-fold intermediate dilution from 1 μL DMSO spot; 160-fold final dilution after transfer to cell plate).
# 2) Prepare Hexyl Dye Solution.
# 3) Prepare cell plates. On the day of the assay, medium is aspirated and cells are washed three times with 100 μL of Bath1 Solution, maintaining 25 μL residual volume in each well.
# 4) Dispense 25 μL per well of Hexyl Dye Solution into cell plates. Incubate for 20-35 minutes at room temp or ambient conditions.
# 5) Dispense 80 μL per well of Bath1 into compound plates. Acid Yellow-17 (1 mM) is added and Potassium Chloride can be altered from 4.5 to 20 mM depending on the NaV subtype and assay sensitivity.
# 6) Wash cell plates three times with 100 μL per well of Bath1, leaving 25 μL of residual volume. Then transfer 25 uL per well from Compound Plates to Cell Plates. Incubate for 20-35 minutes at room temp/ambient condition
# 7) Read Plate on E-VIPR. Use the current-controlled amplifier to deliver stimulation wave pulses for typically 9 seconds and a scan rate of 400 Hz. A pre-stimulus recording is performed for 0.5 seconds to obtain the un-stimulated intensities baseline. The stimulatory waveform is applied for 9 seconds followed by 0.5 seconds of post-stimulation recording to examine the relaxation to the resting state. The stimulatory waveform of the electrical stimulation is specific for each cell type and can vary the magnitude, duration and frequency of the applied current to provide an optimal assay signal.
# Data are analyzed and reported as normalized ratios of background-subtracted emission intensities measured in the 460 nm and 580 nm channels. Background intensities are then subtracted from each assay channel. Background intensities are obtained by measuring the emission intensities during the same time periods from identically treated assay wells in which there are no cells. The response as a function of time is then reported as the ratios obtained using the following formula: […]
# The data is further reduced by calculating the initial (Ri) and final (Rf) ratios. These are the average ratio values during part or all of the pre-stimulation period, and during sample points during the stimulation period. The response to the stimulus R=Rf/Ri is then calculated and reported as a function of time.
# Control responses are obtained by performing assays in the presence of a compound with the desired properties (positive control), such as tetracaine, and in the absence of pharmacological agents (negative control). Responses to the negative (N) and positive (P) controls are calculated as above. The compound antagonist activity A is defined as: […]
# Sequence of human NaV subtype, like NaV 1.7 (Q15858 whole entry): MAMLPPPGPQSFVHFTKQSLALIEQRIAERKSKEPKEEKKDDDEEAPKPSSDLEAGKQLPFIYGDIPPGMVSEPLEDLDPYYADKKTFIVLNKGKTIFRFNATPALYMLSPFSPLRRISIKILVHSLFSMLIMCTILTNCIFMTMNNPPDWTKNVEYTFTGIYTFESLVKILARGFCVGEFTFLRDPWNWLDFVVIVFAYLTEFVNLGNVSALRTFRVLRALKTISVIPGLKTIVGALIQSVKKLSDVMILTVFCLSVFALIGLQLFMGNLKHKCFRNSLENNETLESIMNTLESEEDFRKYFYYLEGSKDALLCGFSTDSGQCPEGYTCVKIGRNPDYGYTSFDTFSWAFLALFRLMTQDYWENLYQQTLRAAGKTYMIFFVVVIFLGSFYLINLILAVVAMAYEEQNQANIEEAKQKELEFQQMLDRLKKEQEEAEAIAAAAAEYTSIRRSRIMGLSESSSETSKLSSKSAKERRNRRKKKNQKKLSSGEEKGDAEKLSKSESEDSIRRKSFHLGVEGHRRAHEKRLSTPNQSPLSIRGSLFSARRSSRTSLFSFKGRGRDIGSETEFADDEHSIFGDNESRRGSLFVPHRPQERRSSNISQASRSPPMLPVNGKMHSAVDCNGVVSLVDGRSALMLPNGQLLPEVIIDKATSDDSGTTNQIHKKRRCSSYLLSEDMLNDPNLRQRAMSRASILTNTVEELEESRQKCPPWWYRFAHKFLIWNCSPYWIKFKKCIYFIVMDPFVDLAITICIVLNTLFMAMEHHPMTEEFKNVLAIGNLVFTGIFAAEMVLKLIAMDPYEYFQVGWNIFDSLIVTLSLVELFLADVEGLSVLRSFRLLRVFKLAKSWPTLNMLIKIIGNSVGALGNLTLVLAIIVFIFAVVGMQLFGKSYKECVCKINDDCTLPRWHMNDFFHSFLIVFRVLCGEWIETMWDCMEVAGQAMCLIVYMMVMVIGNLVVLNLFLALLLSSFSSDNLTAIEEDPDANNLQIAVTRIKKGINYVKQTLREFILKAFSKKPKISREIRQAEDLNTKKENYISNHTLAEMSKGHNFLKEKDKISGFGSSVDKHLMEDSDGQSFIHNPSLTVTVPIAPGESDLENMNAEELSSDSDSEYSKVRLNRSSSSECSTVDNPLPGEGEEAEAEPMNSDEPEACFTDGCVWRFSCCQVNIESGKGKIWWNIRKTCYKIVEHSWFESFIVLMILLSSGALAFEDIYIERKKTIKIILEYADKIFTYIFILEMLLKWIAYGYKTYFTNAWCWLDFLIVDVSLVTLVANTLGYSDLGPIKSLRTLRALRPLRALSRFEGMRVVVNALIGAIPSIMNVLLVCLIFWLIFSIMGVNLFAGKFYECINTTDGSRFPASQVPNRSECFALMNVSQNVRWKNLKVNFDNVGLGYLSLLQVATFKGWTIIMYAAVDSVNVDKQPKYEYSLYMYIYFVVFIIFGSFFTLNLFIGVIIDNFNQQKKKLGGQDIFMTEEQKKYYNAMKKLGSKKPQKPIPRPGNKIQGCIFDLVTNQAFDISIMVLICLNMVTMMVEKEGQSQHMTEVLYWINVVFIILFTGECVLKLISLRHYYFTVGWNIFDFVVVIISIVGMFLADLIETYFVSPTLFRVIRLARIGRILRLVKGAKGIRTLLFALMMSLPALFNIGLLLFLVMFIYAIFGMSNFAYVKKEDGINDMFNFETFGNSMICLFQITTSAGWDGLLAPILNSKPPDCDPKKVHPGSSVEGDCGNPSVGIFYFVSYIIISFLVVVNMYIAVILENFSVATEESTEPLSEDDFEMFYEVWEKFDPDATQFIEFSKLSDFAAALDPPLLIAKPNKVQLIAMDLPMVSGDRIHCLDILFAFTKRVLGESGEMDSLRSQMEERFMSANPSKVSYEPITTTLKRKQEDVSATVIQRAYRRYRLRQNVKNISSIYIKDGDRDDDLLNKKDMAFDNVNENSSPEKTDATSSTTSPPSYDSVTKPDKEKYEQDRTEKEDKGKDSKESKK
row,Compound,IC50
1,COC(C)(C)COc1ccc(C(=O)N2CCC3(CC2)CN(CC(F)(F)F)CC(c2ccccc2)O3)cc1 (stereo not drawn) [Compound 60],< 2000 nM
2,CCS(=O)(=O)c1ccc(C(=O)N2CCC3(CC2)CN(CC(F)(F)F)CC(c2ccccc2)O3)cc1C (stereo not drawn) [Compound 62],< 2000 nM
3,Cc1ccc(C2CN(CC(F)F)CC3(CCN(C(=O)c4ccc(OC(C)C)c(C)c4)CC3)O2)cc1 (stereo not drawn) [Compound 63],2000 to 5000 nM
4,COCC1CN(Cc2cocn2)CC2(CCN(C(=O)c3ccc(OC(C)C)c(C)c3)CC2)O1 (stereo not drawn) [Compound 64],> 5000 nM
5,Cc1cc(C(=O)N2CCC3(CC2)CN(CC(F)F)CC(c2ccccn2)O3)ccc1S(=O)(=O)C(C)C (stereo not drawn) [Compound 65],> 5000 nM
6,COCC1CN(Cc2c(F)cccc2F)CC2(CCN(C(=O)c3ccc(OC(C)C)c(C)c3)CC2)O1 (stereo not drawn) [Compound 66],< 2000 nM
7,CCC1CN(c2ncccn2)CC2(CCN(C(=O)c3ccc(C4(O)CCCCC4)cc3)CC2)O1 (stereo not drawn) [Compound 67],< 2000 nM
8,Cc1cc(C(=O)N2CCC3(CC2)CN(CC#N)CC(c2ccccc2)O3)ccc1C(C)(C)O (stereo not drawn) [Compound 68],2000 to 5000 nM
9,COCC1CN(Cc2cncnc2)CC2(CCN(C(=O)c3ccc(OC(C)C)c(C)c3)CC2)O1 (stereo not drawn) [Compound 69],> 5000 nM
10,COCC1CN(c2ccc(C#N)cc2)CC2(CCN(C(=O)c3ccc(OC(C)C)c(C)c3)CC2)O1 (stereo not drawn) [Compound 70],< 2000 nM
11,COc1cc(F)cc(C(=O)N2CCC3(CC2)CN(CC(F)(F)F)CC(c2ccccc2)O3)c1 (stereo not drawn) [Compound 71],> 5000 nM
12,CCOc1cccc(C(=O)N2CCC3(CC2)CN(c2ncccn2)CC(COC)O3)c1 (stereo not drawn) [Compound 72],> 5000 nM
13,COCC1CN(C(C)C)CC2(CCN(C(=O)c3ccc(OC(C)C)c(C)c3)CC2)O1 (stereo not drawn) [Compound 73],< 2000 nM
14,COCC1CN(c2cccc(OC)c2)CC2(CCN(C(=O)c3ccc(OC(C)C)c(C)c3)CC2)O1 (stereo not drawn) [Compound 74],< 2000 nM
15,COCC1CN(c2ccc(C)cn2)CC2(CCN(C(=O)c3ccc(OC(C)C)c(C)c3)CC2)O1 (stereo not drawn) [Compound 75],< 2000 nM
16,CCN1CC(c2ncc(C)s2)OC2(CCN(C(=O)c3ccc(OC(C)C)c(OC)c3)CC2)C1 (stereo not drawn) [Compound 76],2000 to 5000 nM
17,CC(C)Oc1ccc(C(=O)N2CCC3(CC2)CN(CC(F)F)CC(c2ccccc2)O3)cc1F (stereo not drawn) [Compound 77],< 2000 nM
18,Cc1cc(C(=O)N2CCC3(CC2)CN(CC(F)(F)F)CC(c2ccccc2)O3)ccc1N1CCOCC1 (stereo not drawn) [Compound 78],< 2000 nM
19,COCC1CN(c2ncccc2OC)CC2(CCN(C(=O)c3ccc(OC(C)C)c(C)c3)CC2)O1 (stereo not drawn) [Compound 79],< 2000 nM

row,Compound,IC50
1,Cc1cccc(C2CN(CC(F)F)CC3(CCN(C(=O)c4ccc(C(C)(C)O)c(F)c4)CC3)O2)n1 (stereo not drawn) [Compound 80],> 5000 nM
2,Cc1cc(C(=O)N2CCC3(CC2)CN(CC(F)F)CC(c2ccc(F)cc2)O3)ccc1OCCCO (stereo not drawn) [Compound 81],> 5000 nM
3,Cc1cc(C(=O)N2CCC3(CC2)CN(Cc2ccccc2)CC(CO)O3)ccc1OC(C)C (stereo not drawn) [Compound 82],2000 to 5000 nM
4,Cc1cnc(C2CN(Cc3ccccc3)CC3(CCN(C(=O)c4ccc(OC(C)C)c(C)c4)CC3)O2)o1 (stereo not drawn) [Compound 83],< 2000 nM
5,CC(C)Oc1ccc(C(=O)N2CCC3(CC2)CN(CC(F)F)CC(c2ccnn2C)O3)cc1F (stereo not drawn) [Compound 84],> 5000 nM
6,CC(C)Oc1ccc(C(=O)N2CCC3(CC2)CN(CC(F)F)CC(c2ccccc2)O3)cc1Cl (stereo not drawn) [Compound 86],< 2000 nM
7,Cc1cc(C2CN(CC(F)(F)F)CC3(CCN(C(=O)c4ccc(OC(C)C)c(F)c4)CC3)O2)n[nH]1 (stereo not drawn) [Compound 87],2000 to 5000 nM
8,Cc1cc(C(=O)N2CCC3(CC2)CN(CC(F)F)CC(c2ncc(C(C)C)o2)O3)ccc1OC(C)C (stereo not drawn) [Compound 88],< 2000 nM
9,CCC#CCN1CC(COC)OC2(CCN(C(=O)c3ccc(OC(C)C)c(C)c3)CC2)C1 (stereo not drawn) [Compound 89],< 2000 nM
10,O=C(c1ccccc1OC(F)F)N1CCC2(CC1)CN(CC(F)(F)F)CC(c1ccccc1)O2 (stereo not drawn) [Compound 90],> 5000 nM
11,CCC1CN(c2ncccn2)CC2(CCN(C(=O)c3ccc(C4(O)CCC4)c(C)c3)CC2)O1 (stereo not drawn) [Compound 91],< 2000 nM
12,Cc1cc(C(=O)N2CCC3(CC2)CN(c2ncccn2)CC(CO)O3)ccc1OC(C)C (stereo not drawn) [Compound 92],> 5000 nM
13,COCC1CN(c2ncccn2)CC2(CCN(C(=O)c3ccc(C4(O)CCC4)c(C)c3)CC2)O1 (stereo not drawn) [Compound 93],< 2000 nM
14,CC(C)Oc1ccc(C(=O)N2CCC3(CC2)CN(CC(F)(F)F)CC(c2ccccc2)O3)cc1F (stereo not drawn) [Compound 94],< 2000 nM
15,COCC1CN(c2ccnc(C)c2)CC2(CCN(C(=O)c3ccc(OC(C)C)c(C)c3)CC2)O1 (stereo not drawn) [Compound 95],> 5000 nM
16,O=C(c1ccc(S(=O)(=O)C2CCOC2)cc1)N1CCC2(CC1)CN(CC(F)F)CC(c1ccc(F)cc1)O2 (stereo not drawn) [Compound 96],> 5000 nM
17,CCC1CN(c2ccccn2)CC2(CCN(C(=O)c3ccc(C(C)(C)O)c(C)c3)CC2)O1 (stereo not drawn) [Compound 97],< 2000 nM
18,Cc1cc(C(=O)N2CCC3(CC2)CN(CC(F)(F)F)CC(c2ccccc2)O3)ccc1C(C)(C)O (stereo not drawn) [Compound 98],< 2000 nM
19,O=C(c1ccc(S(=O)(=O)NC2CC2)cc1)N1CCC2(CC1)CN(CC(F)(F)F)CC(c1ccccc1)O2 (stereo not drawn) [Compound 99],< 2000 nM

row,Compound,IC50
1,COc1cc(C(=O)N2CCC3(CC2)CN(CC(F)F)C(c2ccccc2)CO3)ccc1OC(C)C (stereo not drawn) [Compound 100],< 2000 nM
2,CCCCN1CC(COC)OC2(CCN(C(=O)c3ccc(OC(C)C)c(C)c3)CC2)C1 (stereo not drawn) [Compound 101],< 2000 nM
3,COCC1CN(Cc2ccccc2F)CC2(CCN(C(=O)c3ccc(OC(C)C)c(C)c3)CC2)O1 (stereo not drawn) [Compound 102],< 2000 nM
4,CCC1CN(c2ccccn2)CC2(CCN(C(=O)c3ccc(C4(O)CCCC4)c(C)c3)CC2)O1 (stereo not drawn) [Compound 103],< 2000 nM
5,COc1cc(C(=O)N2CCC3(CC2)CN(CC(F)(F)F)C(c2ccccc2)CO3)ccc1OC(C)C (stereo not drawn) [Compound 104],< 2000 nM
6,CC(C)(O)c1ccc(C(=O)N2CCC3(CC2)CN(CC(F)(F)F)CC(c2ccccc2)O3)cc1 (stereo not drawn) [Compound 105],< 2000 nM
7,Cc1nc(C(=O)N2CCC3(CC2)CN(CC(F)(F)F)CC(c2ccccc2)O3)ccc1C#N (stereo not drawn) [Compound 106],> 5000 nM
8,CCCOCCN1CC(COC)OC2(CCN(C(=O)c3ccc(OC(C)C)c(C)c3)CC2)C1 (stereo not drawn) [Compound 107],< 2000 nM
9,Cc1cc(S(C)(=O)=O)ccc1C(=O)N1CCC2(CC1)CN(CC(F)(F)F)CC(c1ccccc1)O2 (stereo not drawn) [Compound 108],> 5000 nM
10,CC(C)CS(=O)(=O)c1ccc(C(=O)N2CCC3(CC2)CN(CC(F)F)CC(c2ccc(F)cc2)O3)cc1 (stereo not drawn) [Compound 109],2000 to 5000 nM
11,CC(C)Oc1ccc(C(=O)N2CCC3(CC2)CN(CC(F)(F)F)CC(c2cc[nH]n2)O3)cc1Cl (stereo not drawn) [Compound 110],< 2000 nM
12,COCC1CN(CC(C)C)CC2(CCN(C(=O)c3ccc(OC(C)C)c(C)c3)CC2)O1 (stereo not drawn) [Compound 111],< 2000 nM
13,CCC(CC)CN1CC(COC)OC2(CCN(C(=O)c3ccc(OC(C)C)c(C)c3)CC2)C1 (stereo not drawn) [Compound 112],< 2000 nM
14,COCC1CN(CC(C)=O)CC2(CCN(C(=O)c3ccc(OC(C)C)c(C)c3)CC2)O1 (stereo not drawn) [Compound 113],> 5000 nM
15,Cc1cc(C(=O)N2CCC3(CC2)CN(c2ncccn2)CC(COC(C)C)O3)ccc1OC(C)C (stereo not drawn) [Compound 114],< 2000 nM
16,COc1cc(C(=O)N2CCC3(CC2)CN(CC#N)CC(c2ccccc2)O3)ccc1C(C)(C)O (stereo not drawn) [Compound 115],2000 to 5000 nM
17,Cc1nc2cccc(C(=O)N3CCC4(CC3)CN(CC(F)(F)F)CC(c3ccccc3)O4)c2o1 (stereo not drawn) [Compound 116],< 2000 nM
18,Cc1cc(C(=O)N2CCC3(CC2)CN(CC(F)(F)F)CC(c2ccccc2)O3)ccc1OCCCO (stereo not drawn) [Compound 117],< 2000 nM
19,O=C(c1cc(Cl)cc(Cl)c1)N1CCC2(CC1)CN(CC(F)(F)F)CC(c1ccccc1)O2 (stereo not drawn) [Compound 118],> 5000 nM
